“And” between values parts separate entries of the source, which are not always exact repeats. Equal entries are not always repeated. Inconclusive results and toxic doses are left out. Rule as the data show it: active = T/C of 150% or more; inactive = T/C below 125%.
Test system: L1210 leukemia ip in BDF1 mice, survival T/C
Test: NCI In Vivo Anticancer Drug Screen. Data for tumor model L1210 Leukemia (intraperitoneal) in B6D2F1 (BDF1) mice
Conditions: endpoint: mean survival time, higher = longer survival
In short: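 Tumor was transplanted into mice, which were then dosed with test compound or vehicle alone. Survival was recorded for each group, and the treated figure was expressed relative to the control figure.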

[1] = dose: 50.0 mg/kg/injection, schedule: Q01DX001 (ip), vehicle: saline
[2] = dose: 100.0 mg/kg/injection, schedule: Q04DX003 (ip), vehicle: saline
[3] = dose: 200.0 mg/kg/injection, schedule: Q04DX003 (ip), vehicle: saline
[4] = dose: 400.0 mg/kg/injection, schedule: Q04DX003 (ip), vehicle: saline
[5] = dose: 100.0 mg/kg/injection, schedule: Q04DX003 (ip), vehicle: Klucel (hydroxypropylcellulose) (HPC)
[6] = dose: 200.0 mg/kg/injection, schedule: Q04DX003 (ip), vehicle: Klucel (hydroxypropylcellulose) (HPC)
[7] = dose: 400.0 mg/kg/injection, schedule: Q04DX003 (ip), vehicle: Klucel (hydroxypropylcellulose) (HPC)
[8] = dose: 100.0 mg/kg/injection, schedule: Q01DX001 (ip), vehicle: carboxymethylcellulose (CMC)
[9] = dose: 200.0 mg/kg/injection, schedule: Q01DX001 (ip), vehicle: carboxymethylcellulose (CMC)
[10] = dose: 400.0 mg/kg/injection, schedule: Q01DX001 (ip), vehicle: carboxymethylcellulose (CMC)
[11] = dose: 100.0 mg/kg/injection, schedule: Q01DX001 (ip), vehicle: saline with Tween-80
[12] = dose: 100.0 mg/kg/injection, schedule: Q04DX003 (ip), vehicle: saline with Tween-80
[13] = dose: 200.0 mg/kg/injection, schedule: Q01DX001 (ip), vehicle: saline with Tween-80
[14] = dose: 200.0 mg/kg/injection, schedule: Q04DX003 (ip), vehicle: saline with Tween-80
[15] = dose: 400.0 mg/kg/injection, schedule: Q04DX003 (ip), vehicle: saline with Tween-80
[16] = dose: 100.0 mg/kg/injection, schedule: Q01DX001 (ip), vehicle: saline
[17] = dose: 100.0 mg/kg/injection, schedule: Q01DX009 (ip), vehicle: saline
[18] = dose: 200.0 mg/kg/injection, schedule: Q01DX001 (ip), vehicle: saline
[19] = dose: 200.0 mg/kg/injection, schedule: Q01DX009 (ip), vehicle: saline
[20] = dose: 400.0 mg/kg/injection, schedule: Q01DX009 (ip), vehicle: saline

Measured: T/C

CC(C)CC(NS(=O)(=O)Cc1ccccc1)C(=O)NNc1ccccc1 (stereo unspecified)
inactive: dose: 100.0 mg/kg/injection, schedule: Q01DX001 (ip), vehicle: other 97 % of control | dose: 100.0 mg/kg/injection, schedule: Q04DX003 (ip), vehicle: other 95 % of control | dose: 200.0 mg/kg/injection, schedule: Q01DX001 (ip), vehicle: other 94 % of control | dose: 200.0 mg/kg/injection, schedule: Q04DX003 (ip), vehicle: other 91 % of control | dose: 400.0 mg/kg/injection, schedule: Q01DX001 (ip), vehicle: other 92 % of control

CC(C)NC(C)Cc1ccccc1 (stereo unspecified)
inactive: dose: 25.0 mg/kg/injection, schedule: Q01DX001 (ip), vehicle: saline 93 % of control | [1] 91 % of control

c1ccc(N=Nc2ccc(C3=NCCO3)cc2)cc1
inactive: dose: 100.0 mg/kg/injection, schedule: Q01DX009 (ip), vehicle: Klucel (hydroxypropylcellulose) (HPC) 91 % of control | [2] 95 % of control | dose: 200.0 mg/kg/injection, schedule: Q01DX009 (ip), vehicle: Klucel (hydroxypropylcellulose) (HPC) 88 % of control | [3] 101 % of control | dose: 400.0 mg/kg/injection, schedule: Q01DX009 (ip), vehicle: Klucel (hydroxypropylcellulose) (HPC) 87 % of control | [4] 94 % of control

O=c1[nH]nc(N/N=C/c2ccccc2)n1/N=C/c1ccccc1
inactive: [5] 100 % of control | [6] 96 % of control | [7] 94 % of control

Cc1cc(N(CCCl)CCCl)ccc1C=Nc1cc(Br)c(O)c(Br)c1
inactive: [8] 96 % of control | [9] 94 % of control | [10] 102 % of control

CC(CC(=O)O)NC(=O)OCc1ccccc1 (stereo unspecified)
inactive: [11] 101 % of control | dose: 100.0 mg/kg/injection, schedule: Q01DX009 (ip), vehicle: saline with Tween-80 100 % of control and 107 % of control | [12] 103 % of control | [13] 98 % of control | dose: 200.0 mg/kg/injection, schedule: Q01DX009 (ip), vehicle: saline with Tween-80 97 % of control and 90 % of control | [14] 94 % of control | dose: 400.0 mg/kg/injection, schedule: Q01DX001 (ip), vehicle: saline with Tween-80 95 % of control | dose: 400.0 mg/kg/injection, schedule: Q01DX009 (ip), vehicle: saline with Tween-80 100 % of control and 90 % of control | [15] 97 % of control

CCOC(=O)C(CCSC)(CCN(C)Cc1ccccc1)C(=O)OCC
inactive: dose: 5.0 mg/kg/injection, schedule: Q01DX001 (ip), vehicle: saline 102 % of control | dose: 10.0 mg/kg/injection, schedule: Q01DX001 (ip), vehicle: saline 96 % of control | dose: 20.0 mg/kg/injection, schedule: Q01DX001 (ip), vehicle: saline 96 % of control | dose: 40.0 mg/kg/injection, schedule: Q01DX001 (ip), vehicle: saline 94 % of control | dose: 80.0 mg/kg/injection, schedule: Q01DX001 (ip), vehicle: saline 94 % of control | [16] 100 % of control

CC1(C)CCCC2(C)C(=O)C3CCC2C31 (stereo unspecified)
inactive: dose: 100.0 mg/kg/injection, schedule: Q01DX001 (ip), vehicle: Klucel (hydroxypropylcellulose) (HPC) 98 % of control | dose: 200.0 mg/kg/injection, schedule: Q01DX001 (ip), vehicle: Klucel (hydroxypropylcellulose) (HPC) 91 % of control | dose: 400.0 mg/kg/injection, schedule: Q01DX001 (ip), vehicle: Klucel (hydroxypropylcellulose) (HPC) 91 % of control

CCCCCCCCN=[N+](C)[O-]
inactive: dose: 100.0 mg/kg/injection, schedule: Q04DX002 (ip), vehicle: Klucel (hydroxypropylcellulose) (HPC) 97 % of control | dose: 200.0 mg/kg/injection, schedule: Q04DX002 (ip), vehicle: Klucel (hydroxypropylcellulose) (HPC) 93 % of control

COc1ccc(N=C(N)N=C(N)N)cc1
inactive: [1] 111 % of control | [16] 104 % of control | [17] 91 % of control | [18] 95 % of control | [19] 92 % of control

NCCS(=O)CCN
inactive: [17] 100 % of control | [19] 107 % of control | [20] 94 % of control

CCNCCC#N
inactive: [17] 111 % of control | [5] 108 % of control | [19] 107 % of control | [6] 107 % of control | [7] 111 % of control

CC(=O)N(CCCc1ccccc1)C(C)(C)C
inactive: dose: 50.0 mg/kg/injection, schedule: Q01DX009 (ip), vehicle: saline 104 % of control | [16] 110 % of control | [17] 110 % of control | [18] 114 % of control

CC(C)(C)C1COP(=O)(Oc2ccccc2)OC1 (stereo unspecified)
inactive: [8] 91 % of control | [9] 94 % of control

CCOC(=O)Cc1c(C)[nH]c2c(C)ccc(C)c12
inactive: dose: 5.0 mg/kg/injection, schedule: Q01DX001 (ip), vehicle: other 94 % of control | dose: 10.0 mg/kg/injection, schedule: Q01DX001 (ip), vehicle: other 91 % of control | dose: 20.0 mg/kg/injection, schedule: Q01DX001 (ip), vehicle: other 105 % of control | dose: 40.0 mg/kg/injection, schedule: Q01DX001 (ip), vehicle: other 96 % of control | dose: 80.0 mg/kg/injection, schedule: Q01DX001 (ip), vehicle: other 100 % of control

CC1=C/C(=N\N2CCOCC2)C(C(O)(C(F)(F)F)C(F)(F)F)C(C)(C)C1 (stereo unspecified)
inactive: [2] 98 % of control | [3] 98 % of control | [4] 96 % of control

Cc1cc(OC(=O)Nc2ccc(F)cc2)c(C(C)C)cc1Cl
inactive: dose: 50.0 mg/kg/injection, schedule: Q01DX001 (ip), vehicle: carboxymethylcellulose (CMC) 90 % of control | dose: 50.0 mg/kg/injection, schedule: Q01DX009 (ip), vehicle: carboxymethylcellulose (CMC) 99 % of control and 101 % of control | dose: 50.0 mg/kg/injection, schedule: Q04DX002 (ip), vehicle: carboxymethylcellulose (CMC) 93 % of control and 96 % of control | [8] 103 % of control | dose: 100.0 mg/kg/injection, schedule: Q01DX009 (ip), vehicle: carboxymethylcellulose (CMC) 96 % of control and 99 % of control | dose: 100.0 mg/kg/injection, schedule: Q04DX002 (ip), vehicle: carboxymethylcellulose (CMC) 100 % of control and 106 % of control | [9] 92 % of control | dose: 200.0 mg/kg/injection, schedule: Q01DX009 (ip), vehicle: carboxymethylcellulose (CMC) 94 % of control and 95 % of control | dose: 200.0 mg/kg/injection, schedule: Q04DX002 (ip), vehicle: carboxymethylcellulose (CMC) 95 % of control and 100 % of control

CCC(C)NC(=O)Oc1cccc(NC(=O)N(C)C)c1 (stereo unspecified)
inactive: [12] 92 % of control | [14] 89 % of control | [15] 90 % of control

CC(C)(C)C1CCC(S(C)(=O)=O)C(Cl)C1 (stereo unspecified)
inactive: [17] 110 % of control | [2] 102 % of control | [19] 106 % of control | [3] 96 % of control | [20] 102 % of control | [4] 105 % of control

CC(NC(=O)OCc1ccccc1)C(=O)Oc1cc(Cl)c(Cl)cc1Cl (stereo unspecified)
inactive: [16] 92 % of control | [17] 95 % of control | [2] 91 % of control | [18] 97 % of control | [19] 93 % of control | [6] 87 % of control | [3] 91 % of control | dose: 400.0 mg/kg/injection, schedule: Q01DX001 (ip), vehicle: saline 92 % of control | [20] 92 % of control

O=C1Nc2ccccc2C1=Nc1ccc2[nH]c3ccccc3c2c1
inactive: [8] 91 % of control | [9] 94 % of control | [10] 91 % of control

Cc1ccc(S(=O)(=O)N/N=C2/C(=O)C3CCC2C3)cc1 (stereo unspecified)
inactive: dose: 50.0 mg/kg/injection, schedule: Q01DX001 (ip), vehicle: saline with Tween-80 92 % of control | [11] 92 % of control | [13] 87 % of control

CCCCN(CCCC)C(=O)C1C=C2c3cccc4[nH]cc(c34)CC2N(C)C1 (stereo unspecified)
inactive: dose: 100.0 mg/kg/injection, schedule: Q01DX009 (ip), vehicle: water 104 % of control | dose: 200.0 mg/kg/injection, schedule: Q01DX009 (ip), vehicle: water 110 % of control
